Measured values: PubChem BioAssay (NCI)
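GI50: concentration for 50% inhibition of growth. TGI: total growth inhibition.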

Experiments:
Experiment in all cases: DTP human tumour cell line panel, 384-well format
RPMI-8226 leukemia = tested on: RPMI-8226 leukemia
UO-31 renal = tested on: UO-31 renal
SK-MEL-28 melanoma = tested on: SK-MEL-28 melanoma
SW-620 colon = tested on: SW-620 colon
MDA-MB-468 breast = tested on: MDA-MB-468 breast
MCF7 breast = tested on: MCF7 breast
NCI/ADR-RES ovarian = tested on: NCI/ADR-RES ovarian
SF-539 CNS = tested on: SF-539 CNS
HCT-116 colon = tested on: HCT-116 colon
OVCAR-3 ovarian = tested on: OVCAR-3 ovarian
KM12 colon = tested on: KM12 colon
CAKI-1 renal = tested on: CAKI-1 renal
PC-3 prostate = tested on: PC-3 prostate
MALME-3M melanoma = tested on: MALME-3M melanoma
UACC-62 melanoma = tested on: UACC-62 melanoma
OVCAR-4 ovarian = tested on: OVCAR-4 ovarian
SNB-75 CNS = tested on: SNB-75 CNS
CCRF-CEM leukemia = tested on: CCRF-CEM leukemia
HCT-15 colon = tested on: HCT-15 colon
SF-295 CNS = tested on: SF-295 CNS
NCI-H322M lung = tested on: NCI-H322M lung
A498 renal = tested on: A498 renal
T-47D breast = tested on: T-47D breast
BT-549 breast = tested on: BT-549 breast
LOX IMVI melanoma = tested on: LOX IMVI melanoma
NCI-H522 lung = tested on: NCI-H522 lung
RXF 393 renal = tested on: RXF 393 renal
NCI-H23 lung = tested on: NCI-H23 lung
HT29 colon = tested on: HT29 colon
SK-MEL-2 melanoma = tested on: SK-MEL-2 melanoma
SK-OV-3 ovarian = tested on: SK-OV-3 ovarian
U251 glioblastoma = tested on: U251 glioblastoma
MOLT-4 leukemia = tested on: MOLT-4 leukemia
A549 NSCLC = tested on: A549 NSCLC
ACHN renal = tested on: ACHN renal
IGROV1 ovarian = tested on: IGROV1 ovarian
UACC-257 melanoma = tested on: UACC-257 melanoma
HL-60(TB) leukemia = tested on: HL-60(TB) leukemia
HOP-92 NSCLC = tested on: HOP-92 NSCLC
MDA-MB-231 breast = tested on: MDA-MB-231 breast
SF-268 CNS = tested on: SF-268 CNS
NCI-H226 lung = tested on: NCI-H226 lung
TK-10 renal = tested on: TK-10 renal
EKVX NSCLC = tested on: EKVX NSCLC
786-0 renal = tested on: 786-0 renal
SNB-19 CNS = tested on: SNB-19 CNS
MDA-MB-435 melanoma = tested on: MDA-MB-435 melanoma
OVCAR-8 ovarian = tested on: OVCAR-8 ovarian
HOP-62 NSCLC = tested on: HOP-62 NSCLC
HS 578T breast = tested on: HS 578T breast
OVCAR-5 ovarian = tested on: OVCAR-5 ovarian
K-562 leukemia = tested on: K-562 leukemia
SN12C renal = tested on: SN12C renal
M14 melanoma = tested on: M14 melanoma
DU-145 prostate = tested on: DU-145 prostate

For `C1CN1c1nc(N2CC2)nc(N2CC2)n1`, the GI50 (RPMI-8226 leukemia) was 0.736 µM, the TGI (RPMI-8226 leukemia) was 3.11 µM and the GI50 (UO-31 renal) was 5.17 µM. It also gave a TGI (UO-31 renal) of 17.9 µM, a GI50 (SK-MEL-28 melanoma) of 10.3 µM and a TGI (SK-MEL-28 melanoma) of 22.1 µM. For the same compound, the GI50 (SW-620 colon) was 2.84 µM, the TGI (SW-620 colon) was 20 µM and the GI50 (MDA-MB-468 breast) was 0.139 µM. The TGI (MDA-MB-468 breast) was 0.586 µM, the GI50 (MCF7 breast) was 1.51 µM and the TGI (MCF7 breast) was 18 µM. The GI50 (NCI/ADR-RES ovarian) was 3.02 µM, the TGI (NCI/ADR-RES ovarian) was 15.1 µM and the GI50 (SF-539 CNS) was 1.46 µM. It also gave a TGI (SF-539 CNS) of 4.3 µM, a GI50 (HCT-116 colon) of 1.61 µM and a TGI (HCT-116 colon) of 16.6 µM. The GI50 (OVCAR-3 ovarian) was 3.13 µM, the TGI (OVCAR-3 ovarian) was 14.5 µM and the GI50 (KM12 colon) was 2.47 µM. It also gave a TGI (KM12 colon) of 54.9 µM, a GI50 (CAKI-1 renal) of 1.46 µM and a TGI (CAKI-1 renal) of 14.2 µM. For the same compound, the GI50 (PC-3 prostate) was 10.7 µM, the TGI (PC-3 prostate) was 23.4 µM and the GI50 (MALME-3M melanoma) was 4.87 µM. For the same compound, the TGI (MALME-3M melanoma) was 18.6 µM, the GI50 (UACC-62 melanoma) was 1.34 µM and the TGI (UACC-62 melanoma) was 11.6 µM. For the same compound, the GI50 (OVCAR-4 ovarian) was 14.7 µM, the TGI (OVCAR-4 ovarian) was 29 µM and the GI50 (SNB-75 CNS) was 1.67 µM. The TGI (SNB-75 CNS) was 10.3 µM, the GI50 (CCRF-CEM leukemia) was 0.449 µM and the TGI (CCRF-CEM leukemia) was 1.35 µM. For the same compound, the GI50 (HCT-15 colon) was 2.34 µM, the TGI (HCT-15 colon) was 14.1 µM and the GI50 (SF-295 CNS) was 1.08 µM. The TGI (SF-295 CNS) was 2.84 µM, the GI50 (NCI-H322M lung) was 13.3 µM and the TGI (NCI-H322M lung) was 27.9 µM. It also gave a GI50 (A498 renal) of 3.36 µM, a TGI (A498 renal) of 18.6 µM and a GI50 (T-47D breast) of 5.49 µM. The TGI (T-47D breast) was 22.7 µM, the GI50 (BT-549 breast) was 2.16 µM and the TGI (BT-549 breast) was 11.5 µM. It also gave a GI50 (LOX IMVI melanoma) of 2.25 µM, a TGI (LOX IMVI melanoma) of 14.8 µM and a GI50 (NCI-H522 lung) of 1.36 µM. It also gave a TGI (NCI-H522 lung) of 2.87 µM, a GI50 (RXF 393 renal) of 3.11 µM and a TGI (RXF 393 renal) of 13.1 µM. For the same compound, the GI50 (NCI-H23 lung) was 1.22 µM, the TGI (NCI-H23 lung) was 4.3 µM and the GI50 (HT29 colon) was 2.75 µM. The TGI (HT29 colon) was 15.3 µM, the GI50 (SK-MEL-2 melanoma) was 8.35 µM and the TGI (SK-MEL-2 melanoma) was 18.8 µM. It also gave a GI50 (SK-OV-3 ovarian) of 2.76 µM, a TGI (SK-OV-3 ovarian) of 12.2 µM and a GI50 (U251 glioblastoma) of 1.42 µM. It also gave a TGI (U251 glioblastoma) of 13.3 µM, a GI50 (MOLT-4 leukemia) of 0.0877 µM and a TGI (MOLT-4 leukemia) of 0.21 µM. The GI50 (A549 NSCLC) was 3.42 µM, the TGI (A549 NSCLC) was 19.5 µM and the GI50 (ACHN renal) was 1.55 µM. For the same compound, the TGI (ACHN renal) was 4.03 µM, the GI50 (IGROV1 ovarian) was 10.8 µM and the TGI (IGROV1 ovarian) was 22.9 µM. The GI50 (UACC-257 melanoma) was 12.5 µM, the TGI (UACC-257 melanoma) was 25.2 µM and the GI50 (HL-60(TB) leukemia) was 0.144 µM. The TGI (HL-60(TB) leukemia) was 0.3 µM, the GI50 (HOP-92 NSCLC) was 6.61 µM and the TGI (HOP-92 NSCLC) was 58.6 µM. The GI50 (MDA-MB-231 breast) was 11.7 µM, the TGI (MDA-MB-231 breast) was 25.2 µM and the GI50 (SF-268 CNS) was 0.68 µM. For the same compound, the TGI (SF-268 CNS) was 10.2 µM, the GI50 (NCI-H226 lung) was 4.42 µM and the TGI (NCI-H226 lung) was 19.9 µM. For the same compound, the GI50 (TK-10 renal) was 14.3 µM, the TGI (TK-10 renal) was 35 µM and the GI50 (EKVX NSCLC) was 15.5 µM. It also gave a TGI (EKVX NSCLC) of 31 µM, a GI50 ([…]-0 renal) of 2.59 µM and a TGI (786-0 renal) of 11.9 µM. It also gave a GI50 (SNB-19 CNS) of 3.73 µM, a TGI (SNB-19 CNS) of 18.1 µM and a GI50 (MDA-MB-435 melanoma) of 10.8 µM. The TGI (MDA-MB-435 melanoma) was 23.1 µM, the GI50 (OVCAR-8 ovarian) was 1.39 µM and the TGI (OVCAR-8 ovarian) was 15.9 µM. It also gave a GI50 (HOP-62 NSCLC) of 0.589 µM, a TGI (HOP-62 NSCLC) of 2.75 µM and a GI50 (HS 578T breast) of 11.6 µM. It also gave a TGI (HS 578T breast) of 24 µM, a GI50 (OVCAR-5 ovarian) of 5.96 µM and a TGI (OVCAR-5 ovarian) of 22 µM. It also gave a GI50 (K-562 leukemia) of 3.96 µM, a TGI (K-562 leukemia) of 17.4 µM and a GI50 (SN12C renal) of 1.21 µM. It also gave a TGI (SN12C renal) of 10.3 µM, a GI50 (M14 melanoma) of 1.74 µM and a TGI (M14 melanoma) of 10.5 µM. The GI50 (DU-145 prostate) was 1.04 µM and the TGI (DU-145 prostate) was 5.94 µM.
